Experimental data: US20230242494A1, “MALONITRILE DERIVATIVES” (Hoffmann-La Roche Inc., priority 2020, published 2023)

What follows are molecules tested against T1, human cGAS (residues 161-522) (Homo sapiens, UniProt Q8N884) (assay: cGAS Activity Assay—Malachite Green). Details: recombinant purified human cGAS 25 nM; 80 μM ATP, 80 μM GTP, 100 nM ISD; 4 hour at RT; phosphate detection by Malachite Green.
T1 construct: human cGAS (residues 161-522); made in house
Format: biochemical
Experimental: Compounds were tested for cGAS inhibition in a coupled enzymatic assay based on Phosphate detection by Malachite Green. Final assay conditions were 20 mM TRIS pH 7.5 (Applichem), 5 mM MgCl2 (Sigma) and 0.01% BSA (Sigma) supplemented with 80 μM ATP (Sigma), 80 μM GTP (Sigma) and 100 nM Interferon Stimulating DNA (ISD) (Microsynth). Recombinantly expressed purified human cGAS (residues 161-522) was used at 25 nM.
All compounds were prepared as 10 mM stock solutions in DMSO and a 16 pt dilution series in DMSO with a dilution factor of 2.5 was prepared. 1 μL of DMSO dilution series was transferred to 32.3 μL reaction buffer, mixed by pipetting up/down, spun for 1 minute at 3000 rpm and was visually inspected for precipitation. 5 μL of 3-fold enzyme stock solution were transferred to an empty 384-well Black/Clear Flat Bottom Polystyrene NBS (Corning) rows 3-24. Rows 1-2 were filled with assay buffer. Plates were spun 10 seconds at 1000 rpm (164×g). 5 μL of compound intermediate dilution was added and mixed by pipetting up/down to rows 3-24. Rows 1-2 were filled with 3.1% DMSO assay buffer. Plates were spun 10 seconds at 1000 rpm (164×g). 5 μL 3-fold Nucleotide/DNA mix was added to all wells to start the reaction. Plates were spun 10 seconds at 1000 rpm (164×g) and incubated for 4 hour at room temperature (RT) in the dark. 5 μL 4 U/ml PPase (Sigma) were added to all wells. Plates spun 10 seconds at 1000 rpm (164×g). 10 μL BioMol green Solution (Enzo Life Sciences) was added to all wells. Plates spun 10 seconds at 1000 rpm (164×g) and incubated 30 minutes at RT in the dark. Absorbance data was collected 620 nm on an EnVision Multilable Reader (Perkin Elmer) and the following measurement settings were used: excitation filter photometric was 620 nm; excitation from the top; measurement height was 1 mm; number of flashes was 30; number of flashes integrated was 1.
All plates are checked for abnormalities and outliers in the Blank Control (no protein, row 1) and the Neutral Control (no compound, row 2) are excluded using the 3*SD rule. Data was normalized to 0 and 100% by Blank and Neutral Control and each curve was fitted and judged using the 4 parameter logistic equation to determine the IC50 for cGAS inhibition.
Table 13 provides IC50 values (μM) for cGAS inhibition obtained for particular examples of the present invention as measured by the above-described assay.

T1 sequence (Q8N884 161-522): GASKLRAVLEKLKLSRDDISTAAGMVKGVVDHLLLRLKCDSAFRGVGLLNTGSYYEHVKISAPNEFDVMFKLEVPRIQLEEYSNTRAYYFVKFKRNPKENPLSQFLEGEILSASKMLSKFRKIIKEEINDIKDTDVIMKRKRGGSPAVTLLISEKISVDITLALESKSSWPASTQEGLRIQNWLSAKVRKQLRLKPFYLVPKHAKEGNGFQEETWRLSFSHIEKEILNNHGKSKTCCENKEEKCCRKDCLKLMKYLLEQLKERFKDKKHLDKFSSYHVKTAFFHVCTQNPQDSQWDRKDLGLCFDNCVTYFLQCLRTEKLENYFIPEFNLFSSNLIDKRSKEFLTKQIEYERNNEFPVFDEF

Row | IC50 [nM] | Compound
1 | 680 | Cc1oncc1/C(O)=C(\C#N)C(=O)Nc1ccc(C(=O)NCc2ccccc2)cc1 [Example 72, (Z)-N-benzyl-4-(2-cyano-3-hydroxy-3-(5-methylisoxazol-4-yl)acrylamido)benzamide]
2 | 6450 | CCc1oncc1/C(O)=C(\C#N)C(=O)Nc1ccc(C(F)(F)F)cc1 [Example 141, (Z)-2-cyano-3-(5-ethylisoxazol-4-yl)-3-hydroxy-N-(4-(trifluoromethyl)phenyl)acrylamide]
3 | 120 | Cc1oncc1/C(O)=C(\C#N)C(=O)Nc1ccc(S(=N)(=O)c2ccccc2)cc1 (stereo not shown) [Example 114, (Z)-2-cyano-3-hydroxy-3-(5-methylisoxazol-4-yl)-N-(4-(phenylsulfonimidoyl)phenyl)acrylamide]
4 | 1050 | Cc1cc(C(F)(F)F)ccc1NC(=O)/C(C#N)=C(\O)c1cnoc1C [Example 50, (Z)-2-cyano-3-hydroxy-N-(2-methyl-4-(trifluoromethyl)phenyl)-3-(5-methylisoxazol-4-yl)acrylamide]
5 | 1330 | Cc1oncc1/C(O)=C(\C#N)C(=O)Nc1ncc(C(=O)N(C)Cc2ccccc2)c(CCc2ccccc2)n1 [Example 133, (Z)-N-benzyl-2-(2-cyano-3-hydroxy-3-(5-methylisoxazol-4-yl)acrylamido)-N-methyl-4-phenethylpyrimidine-5-carboxamide]
6 | 670 | Cc1oncc1/C(O)=C(\C#N)C(=O)Nc1ncc(-c2ccccc2)cn1 [Example 81, (Z)-2-cyano-3-hydroxy-3-(5-methylisoxazol-4-yl)-N-(5-phenylpyrimidin-2-yl)acrylamide]
7 | 640 | COc1ccc(NC(=O)/C(C#N)=C(\O)c2cnoc2C)cc1 [Example 17, (Z)-2-cyano-3-hydroxy-N-(4-methoxyphenyl)-3-(5-methylisoxazol-4-yl)acrylamide]
8 | 1730 | Cc1oncc1/C(O)=C(\C#N)C(=O)Nc1ccc(-c2ccccc2)cc1 [Example 64, (Z)-2-cyano-3-hydroxy-3-(5-methylisoxazol-4-yl)-N-(4-phenylphenyl)-prop-2-enamide]
9 | 1500 | Cc1oncc1/C(O)=C(\C#N)C(=O)Nc1ccc(Cc2ccccc2)cc1 [Example 74, (Z)-N-(4-benzylphenyl)-2-cyano-3-hydroxy-3-(5-methylisoxazol-4-yl)acrylamide]
10 | 70 | Cc1oncc1/C(O)=C(\C#N)C(=O)Nc1ncc(C(=O)N(C)Cc2ccccc2)cn1 [Example 100, N-benzyl-2-[[(Z)-2-cyano-3-hydroxy-3-(5-methylisoxazol-4-yl)prop-enoyl]amino]-N-methyl-2-pyrimidine-5-carboxamide]
11 | 480 | Cc1oncc1/C(O)=C(\C#N)C(=O)Nc1ncc(C#Cc2ccccc2)cn1 [Example 86, (Z)-2-cyano-3-hydroxy-3-(5-methylisoxazol-4-yl)-N-(5-(phenylethynyl)pyrimidin-2-yl)acrylamide]
12 | 510 | CC(=O)c1ccc(NC(=O)/C(C#N)=C(\O)c2cnoc2C)cc1 [Example 2, (Z)-N-(4-acetylphenyl)-2-cyano-3-hydroxy-3-(5-methylisoxazol-4-yl)prop-2-enamide]
13 | 70 | COc1cnc(NC(=O)/C(C#N)=C(\O)c2cnoc2C)nc1 [Example 46, (Z)-2-cyano-3-hydroxy-N-(5-methoxypyrimidin-2-yl)-3-(5-methylisoxazol-4-yl)prop-2-enamide]
14 | 90 | Cc1oncc1/C(O)=C(\C#N)C(=O)Nc1ncc(C(F)(F)F)cn1 [Example 94, (Z)-2-cyano-3-hydroxy-3-(5-methylisoxazol-4-yl)-N-(5-(trifluoromethyl)pyrimidin-2-yl)acrylamide]
15 | 1440 | Cc1oncc1/C(O)=C(\C#N)C(=O)Nc1ccc(-n2cccc2)cc1 [Example 21, (Z)-N-(4-(1H-pyrrol-1-yl)phenyl)-2-cyano-3-hydroxy-3-(5-methylisoxazol-4-yl)acrylamide]
16 | 190 | Cc1oncc1/C(O)=C(\C#N)C(=O)Nc1ccc([S+]([O-])c2ccccc2)cc1 (stereo not shown) [Example 34, (Z)-2-cyano-3-hydroxy-3-(5-methylisoxazol-4-yl)-N-(4-(phenylsulfinyl)phenyl) acrylamide]
